Measured values reported in US4347361A, “4,5α-Epoxy-3-hydroxy or methoxy-7-(1-hydroxy-alkyl or 1-oxoalkyl)morphinan-6-one compounds” (SISA, Incorporated, priority 1980, dated 1982).

Tests used:
[1] = tested on: male CD-1 mice (acetic acid writhing); experiment: acetic acid mouse writhing test (analgesic effects); assay type: in vivo, mice (male CD-1); conditions: subcutaneous; for ED50: sc, 0.25 h, acetic acid i.p. 15 min post drug, read-out: ED50 (dose required to reduce the number of writhes by 50%); for ED50: Ia at dose: at 10 (mg/kg), Ia not defined; for % reduction of number of writhes (ED50 column, X%(Y)): at 10 mg/kg
Procedure: (A) Analgesic effects upon mice (acetic acid writhing test).
The analgesic effects of test compounds were determined in mice by use of the acetic acid writhing test described by B. A. Whittle, Brit. J. Pharmacol., 22:246 (1964). In this test at least three groups of five male CD-1 mice each were given subcutaneous doses of the test drug dissolved in either distilled water or distilled water acidified with HCl depending on the solubility of the compound. Fifteen (15) minutes post drug, 0.4 milliliter of a 0.75% or 1.0% or 0.6 milliliter of a 1.0% V/V acetic acid in distilled water solution was administered intraperitoneally. The number of writhes in a 20 minute interval beginning 5 minutes after the acetic acid injection were determined and compared with the number of writhes in control groups which had received only acetic acid.
Percent inhibition of writhing was calculated as: [formula]
The ED50 dose, i.e., the dose required to reduce the number of writhes by 50%, was determined graphically from a plot of % inhibition as a probit versus log dose. Confidence limits of 95% were calculated on the basis of those results falling in the range 16-84% inhibition. See Litchfield, J. T. and Wilcoxon, F., J. Pharmacol. Exp. Ther., 96:99, (1949).

[2] = tested on: male albino Wistar rats (morphine effect, tail flick); experiment: narcotic antagonist activity, modified rat tail flick test (inhibition of morphine effect); assay type: in vivo; conditions: intraperitoneal; for AD50: Ia at dose: at 10 (mg/kg), Ia not defined; for AD50: Ia at dose / AD50: X%(Y): vs ED80 morphine; for ED50: ip, 10 min before ED80 dose of morphine s.c., read-out: AD50 (dose required to inhibit the morphine effect by 50%)
Procedure: (B) Narcotic antagonist activity in rats (modified rat tail flick test).
The narcotic antagonist effects of test compounds were determined by a modification of the rat tail flick procedure of Harris and Pierson, J. Pharmacol. Exp. Ther. 143:141 (1964).
Male albino Wistar rats (100-120 g.) were used for this study. A rat's tail is so placed so as to cover a photocell. Heat is applied by a lamp in a reflector with a timer being connected to the lamp and photocell so that the timer goes on when the light is turned on and is turned off when the photocell is uncovered. A rheostat, incorporated into a heating lamp is used to adjust the intensity of the light falling on the tail of the rat such that the rat's control reaction time is from 1.2 to 5.8 seconds. Animals with a control reaction time outside this range are rejected. The rheostat adjustment is made only if a significant proportion (more than 1 out of every 10 rats) of the reaction times are outside the range of 1.2 to 5.8 seconds. Groups of five rats were used each time, and two control times were determined at least 30 minutes apart.
The test drug was given intraperitoneally and this was followed ten minutes later by an ED80 dose of morphine subcutaneously. The animals were retested at 20 minutes after the morphine injection. Control animals were given morphine only. […] The data were calculated as follows: [formula]
The data were plotted on log-probit paper and AD50 values, i.e., the dose required to inhibit the morphine effect by 50% within 95% confidence limits, were determined by the method of Litchfield and Wilcoxon.

SMILES | ED50 [1] [mg/kg] | ED50 [2] [mg/kg] | other results
CCCCCC(=O)C1C[C@H]2[C@H]3Cc4ccc(OC)c5c4[C@@]2(CCN3C)[C@@H](O5)C1=O (stereo partly drawn) [MLS-5682] | 4 |  | 
COc1ccc2c3c1O[C@H]1C(=O)C(C(=O)CCCc4ccccc4)C[C@H]4[C@@H](C2)N(C)CC[C@]314 (stereo partly drawn) [MLS-5683, 7-(4-Phenylbutyroyl)Dihydrocodeinone] | 0.41 |  | 
COc1ccc2c3c1O[C@H]1C(=O)C(C(=O)CCc4ccccc4)C[C@H]4[C@@H](C2)N(C)CC[C@]314 (stereo partly drawn) [MLS-5688H] | 0.62 |  | 
CCCCCC(=O)C1C[C@H]2[C@H]3Cc4ccc(O)c5c4[C@@]2(CCN3C)[C@@H](O5)C1=O (stereo partly drawn) [MLS-5689] | 0.76 |  | 
CN1CC[C@]23c4c5ccc(O)c4O[C@H]2C(=O)C(C(=O)CCc2ccccc2)C[C@H]3[C@H]1C5 (stereo partly drawn) [MLS-5690] | 0.105 |  | 
CN1CC[C@]23c4c5ccc(O)c4O[C@H]2C(=O)C(C(=O)CCCc2ccccc2)C[C@H]3[C@H]1C5 (stereo partly drawn) [MLS-5691, 7-(4-Phenylbutyroyl)Dihydromorphone] | 0.0052 |  | 
CCCC(=O)C1C[C@H]2[C@H]3Cc4ccc(OC)c5c4[C@@]2(CCN3C)[C@@H](O5)C1=O (stereo partly drawn) [MLS-5692] |  |  | ED50: Ia at dose [1]: Ia
CCCCCC(C)(O)C1C[C@H]2[C@H]3Cc4ccc(O)c5c4[C@@]2(CCN3C)[C@@H](O5)C1=O (stereo partly drawn) [MLS-5694] | 2.9 |  | 
CCCC(=O)C1C[C@H]2[C@H]3Cc4ccc(O)c5c4[C@@]2(CCN3C)[C@@H](O5)C1=O (stereo partly drawn) [MLS-5695] | 5.25 |  | 
COc1ccc2c3c1O[C@H]1C(=O)C(C(C)=O)C[C@H]4[C@@H](C2)N(CC2CC2)CC[C@]314 (stereo partly drawn) [TR-5463] |  |  | % reduction of number of writhes (ED50 column, X%(Y)) [1]: 9%; AD50: Ia at dose [2]: Ia
CCCC(=O)C1C[C@H]2[C@H]3Cc4ccc(OC)c5c4[C@@]2(CCN3CC2CC2)[C@@H](O5)C1=O (stereo partly drawn) [TR-5464] | 2.81 | 8.1 | 
CC(=O)C1C[C@H]2[C@H]3Cc4ccc(O)c5c4[C@@]2(CCN3CC2CC2)[C@@H](O5)C1=O (stereo partly drawn) [TR-5475] | 4.05 | 1.3 | 
CCCC(=O)C1C[C@H]2[C@H]3Cc4ccc(O)c5c4[C@@]2(CCN3CC2CC2)[C@@H](O5)C1=O (stereo partly drawn) [TR-5476, 17-cyclopropylmethyl-4,5α-epoxy-3-hydroxy-7-butanoylmorphinan-6-one] | 4.65 | 2.55 | 
COc1ccc2c3c1O[C@H]1C(=O)C(C(C)(C)O)C[C@H]4[C@@H](C2)N(CC2CC2)CC[C@]314 (stereo partly drawn) [TR-5479] |  |  | ED50: Ia at dose [1]: Ia; AD50: X%(Y) ([2]; at 10 mg/kg): 41%
COc1ccc2c3c1O[C@H]1C(=O)C(C(C)(C)O)C[C@H]4[C@@H](C2)N(C)CC[C@]314 (stereo partly drawn) [TR-5492] | 4.5 |  | 
CCCC(C)(O)C1C[C@H]2[C@H]3Cc4ccc(OC)c5c4[C@@]2(CCN3CC2CC2)[C@@H](O5)C1=O (stereo partly drawn) [TR-5499] | 0.42 |  | AD50: X%(Y) ([2]; at 7 mg/kg): 12%
COc1ccc2c3c1O[C@H]1C(=O)C(C(=O)c4ccccc4)C[C@H]4[C@@H](C2)N(CC2CC2)CC[C@]314 (stereo partly drawn) [TR-5501] | 11.3 | 8 | 
CCCCCC(=O)C1C[C@H]2[C@H]3Cc4ccc(OC)c5c4[C@@]2(CCN3CC2CC2)[C@@H](O5)C1=O (stereo partly drawn) [TR-5504] | 5.7 |  | AD50: Ia at dose [2]: Ia
CCCCCC(=O)C1C[C@H]2[C@H]3Cc4ccc(O)c5c4[C@@]2(CCN3CC2CC2)[C@@H](O5)C1=O (stereo partly drawn) [TR-5505] | 0.29 | 22 | 

SMILES | ED50 [1] [mg/kg] | ED50 [2] [mg/kg] | other results
O=C(c1ccccc1)C1C[C@H]2[C@H]3Cc4ccc(O)c5c4[C@@]2(CCN3CC2CC2)[C@@H](O5)C1=O (stereo partly drawn) [TR-5506] | 4.35 | 0.24 | 
COc1ccc2c3c1O[C@H]1C(=O)C(C(=O)C(C)C)C[C@H]4[C@@H](C2)N(CC2CC2)CC[C@]314 (stereo partly drawn) [TR-5509] | 7.5 | 2.8 | 
CC(C)C(=O)C1C[C@H]2[C@H]3Cc4ccc(O)c5c4[C@@]2(CCN3CC2CC2)[C@@H](O5)C1=O (stereo partly drawn) [TR-5511] | > 10 | 0.81 | 
CCCCC(=O)C1C[C@H]2[C@H]3Cc4ccc(OC)c5c4[C@@]2(CCN3CC2CC2)[C@@H](O5)C1=O (stereo partly drawn) [TR-5519] | > 10 |  | AD50: Ia at dose [2]: Ia
CCCCC(=O)C1C[C@H]2[C@H]3Cc4ccc(O)c5c4[C@@]2(CCN3CC2CC2)[C@@H](O5)C1=O (stereo partly drawn) [TR-5520] | 1.59 |  | AD50: X%(Y) ([2]; at 10 mg/kg): 77%
CCCCCC(C)(O)C1C[C@H]2[C@H]3Cc4ccc(O)c5c4[C@@]2(CCN3CC2CC2)[C@@H](O5)C1=O (stereo partly drawn) [TR-5538] | 0.28 | 6.6 | 
CCCCCCC(=O)C1C[C@H]2[C@H]3Cc4ccc(OC)c5c4[C@@]2(CCN3CC2CC2)[C@@H](O5)C1=O (stereo partly drawn) [TR-5539] | > 10 | > 10 | 
CCCCCCC(=O)C1C[C@H]2[C@H]3Cc4ccc(O)c5c4[C@@]2(CCN3CC2CC2)[C@@H](O5)C1=O (stereo partly drawn) [TR-5540] | 0.4 |  | AD50: Ia at dose [2]: Ia
CCCC(C)(O)C1C[C@H]2[C@H]3Cc4ccc(O)c5c4[C@@]2(CCN3CC2CC2)[C@@H](O5)C1=O (stereo partly drawn) [TR-5543, 17-cyclopropylmethyl-4,5α-epoxy-3-hydroxy-7-(1-hydroxy-1-methylbutyl)morphinan-6-one] | 1.8 | 2.8 | 
CCCCC(C)(O)C1C[C@H]2[C@H]3Cc4ccc(OC)c5c4[C@@]2(CCN3CC2CC2)[C@@H](O5)C1=O (stereo partly drawn) [TR-5544] |  |  | % reduction of number of writhes (ED50 column, X%(Y)) [1]: 10%; AD50: Ia at dose [2]: Ia
CCCCC(C)(O)C1C[C@H]2[C@H]3Cc4ccc(O)c5c4[C@@]2(CCN3CC2CC2)[C@@H](O5)C1=O (stereo partly drawn) [TR-5551] |  | 2.5 | % reduction of number of writhes (ED50 column, X%(Y)) [1]: 40%
CCC(=O)C1C[C@H]2[C@H]3Cc4ccc(OC)c5c4[C@@]2(CCN3CC2CC2)[C@@H](O5)C1=O (stereo partly drawn) [TR-5570] |  | 6.5 | % reduction of number of writhes (ED50 column, X%(Y)) [1]: 11%
COc1ccc2c3c1O[C@H]1C(=O)C(C(=O)C(C)(C)C)C[C@H]4[C@@H](C2)N(CC2CC2)CC[C@]314 (stereo partly drawn) [TR-5571] |  |  | ED50: Ia at dose [1]: Ia; AD50: X%(Y) ([2]; at 10 mg/kg): 13%
CC(C)C(C)(O)C1C[C@H]2[C@H]3Cc4ccc(O)c5c4[C@@]2(CCN3CC2CC2)[C@@H](O5)C1=O (stereo partly drawn) [TR-5572] | 7.8 | 2.2 | 
CCC(=O)C1C[C@H]2[C@H]3Cc4ccc(O)c5c4[C@@]2(CCN3CC2CC2)[C@@H](O5)C1=O (stereo partly drawn) [TR-5573] |  | 0.51 | ED50: Ia at dose [1]: Ia
CC(C)(C)CC(=O)C1C[C@H]2[C@H]3Cc4ccc(O)c5c4[C@@]2(CCN3CC2CC2)[C@@H](O5)C1=O (stereo partly drawn) [TR-5574] |  | > 10 | ED50: Ia at dose [1]: Ia
COc1ccc2c3c1O[C@H]1C(=O)C(C(=O)c4ccc(F)cc4)C[C@H]4[C@@H](C2)N(CC2CC2)CC[C@]314 (stereo partly drawn) [TR-5575] |  |  | ED50: Ia at dose [1]: Ia; AD50: X%(Y) ([2]; at 10 mg/kg): 17%
COc1ccc2c3c1O[C@H]1C(=O)C(C(=O)Cc4ccccc4)C[C@H]4[C@@H](C2)N(CC2CC2)CC[C@]314 (stereo partly drawn) [TR-5577] |  |  | % reduction of number of writhes (ED50 column, X%(Y)) [1]: 21%; AD50: Ia at dose [2]: Ia
O=C(c1ccc(F)cc1)C1C[C@H]2[C@H]3Cc4ccc(O)c5c4[C@@]2(CCN3CC2CC2)[C@@H](O5)C1=O (stereo partly drawn) [TR-5579] |  |  | % reduction of number of writhes (ED50 column, X%(Y)) [1]: 29%; AD50: X%(Y) ([2]; at 10 mg/kg): 45%
